How the values were obtained:
[1] = system: GM1 production; experiment: cells; type: cell-based; details: Homo sapiens, Jurkat, 72 h
[2] = biological target: glucosylceramide synthase (GCS) (Homo sapiens (Human), UniProt Q16739); experiment: Evaluation of inhibitory activities against GCS (enzyme reaction with A549 cell lysate, NBD C6-ceramide, HPLC fluorescence); type: biochemical; details: GCS activity in A549 cell lysate, 37° C. for 90 minutes
Method in brief: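 Lysate of A549 cells in 50 mM HEPES pH 7.3 incubated with test compound and NBD C6-ceramide at 37 °C for 90 min; lipids extracted with chloroform/methanol and GlcCer and ceramide peaks quantified by HPLC fluorescence. Activity from GlcCer area fraction, normalised between DMSO and ibiglustat controls.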

glucosylceramide synthase (GCS), sequence (Q16739 whole entry, looked up): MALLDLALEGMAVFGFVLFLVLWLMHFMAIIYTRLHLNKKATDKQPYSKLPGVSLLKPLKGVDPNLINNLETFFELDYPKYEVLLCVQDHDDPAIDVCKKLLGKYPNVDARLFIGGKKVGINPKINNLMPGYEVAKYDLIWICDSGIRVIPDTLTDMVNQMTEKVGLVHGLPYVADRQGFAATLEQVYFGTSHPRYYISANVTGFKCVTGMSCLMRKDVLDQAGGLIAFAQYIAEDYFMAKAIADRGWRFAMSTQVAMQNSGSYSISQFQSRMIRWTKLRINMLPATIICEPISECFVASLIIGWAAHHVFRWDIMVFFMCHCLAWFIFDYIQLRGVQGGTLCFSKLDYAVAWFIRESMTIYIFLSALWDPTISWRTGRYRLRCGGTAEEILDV

Row | Compound | IC50 [1] [nM] | IC50 [2] [nM]
1 | O=C(NC1c2ccc(-c3cccc(Cl)c3)cc2CCC12CC2)O[C@@H]1CN2CCC1CC2 (stereo partly drawn) [Example 191, (S)-quinuclidin-3-yl (6′-(3-chlorophenyl)-3′,4′-dihydro-1′H-spiro[cyclopropane-1,2′-naphthalen]-1′-yl)carbamate] | 14.4 | 9.9
2 | O=C(NC1CCCc2cc(-c3ccccc3C(F)(F)F)ccc21)O[C@@H]1CN2CCC1CC2 (stereo partly drawn) [Example 11, (S)-quinuclidin-3-yl (6-(2-(trifluoromethyl)phenyl)-1,2,3,4-tetrahydronaphthalen-1-yl)carbamate] | 38.5 | 8.18
3 | COc1ccc(-c2ccc3c(c2)CCC2(CC2)C3NC(=O)O[C@@H]2CN3CCC2CC3)c(Cl)c1 (stereo partly drawn) [Example 200, (S)-quinuclidin-3-yl (6′-(2-chloro-4-methoxyphenyl)-3′,4′-dihydro-1′H-spiro[cyclopropane-1,2′-naphthalen]-1′-yl)carbamate] | 46 | 8.85
4 | O=C(NC1c2cc(-c3cccc(F)c3)ccc2CCC12CC2)O[C@@H]1CN2CCC1CC2 (stereo partly drawn) [Example 175, (S)-quinuclidin-3-yl (7′-(3-fluorophenyl)-3′,4′-dihydro-1′H-spiro[cyclopropane-1,2′-naphthalen]-1′-yl)carbamate] | 167 | 14.8
5 | CC1(C)CCc2ccc(-c3cccc(F)c3)cc2C1NC(=O)O[C@@H]1CN2CCC1CC2 (stereo partly drawn) [Example 155, (S)-quinuclidin-3-yl (7-(3-fluorophenyl)-2,2-dimethyl-1,2,3,4-tetrahydronaphthalen-1-yl)carbamate] | 108 | 21
6 | O=C(NC1CCCc2ccc(-c3ccc(Cl)c(Cl)c3)cc21)O[C@@H]1CN2CCC1CC2 (stereo partly drawn) [Example 70, (S)-quinuclidin-3-yl (7-(3,4-dichlorophenyl)-1,2,3,4-tetrahydronaphthalen-1-yl)carbamate] | 133 | 83.9
7 | O=C(NC1CCCc2cc(-c3ccc(F)c(F)c3)ccc21)O[C@@H]1CN2CCC1CC2 (stereo partly drawn) [Example 15, (S)-quinuclidin-3-yl (6-(3,4-difluorophenyl)-1,2,3,4-tetrahydronaphthalen-1-yl)carbamate] | 19.7 | 6.88
8 | O=C(NC1CCCc2ccc(-c3ccccc3C(F)(F)F)cc21)O[C@@H]1CN2CCC1CC2 (stereo partly drawn) [Example 63, (S)-quinuclidin-3-yl (7-(2-(trifluoromethyl)phenyl)-1,2,3,4-tetrahydronaphthalen-1-yl)carbamate] | 41.8 | 6.7
9 | CC1(C)CCc2cc(-c3ccc(F)c(F)c3)ccc2C1NC(=O)O[C@@H]1CN2CCC1CC2 (stereo partly drawn) [Example 100, (S)-quinuclidin-3-yl (6-(3,4-difluorophenyl)-2,2-dimethyl-1,2,3,4-tetrahydronaphthalen-1-yl)carbamate] | 2.59 | 1.78
10 | O=C(NC1CCCc2cc(-c3cc(F)c(F)cc3F)ccc21)O[C@@H]1CN2CCC1CC2 (stereo partly drawn) [Example 21, (S)-quinuclidin-3-yl (6-(2,4,5-trifluorophenyl)-1,2,3,4-tetrahydronaphthalen-1-yl)carbamate] | 42.1 | 2.53
11 | O=C(NC1c2cc(-c3ccc(C(F)(F)F)cc3)ccc2CCC12CC2)O[C@@H]1CN2CCC1CC2 (stereo partly drawn) [Example 173, (S)-quinuclidin-3-yl (7′-(4-(trifluoromethyl)phenyl)-3′,4′-dihydro-1′H-spiro[cyclopropane-1,2′-naphthalen]-1′-yl)carbamate] | 18.9 | 1.61
12 | COc1ccc(-c2cc3c(cc2OC)C(NC(=O)O[C@@H]2CN4CCC2CC4)C(C)(C)CC3)cc1F (stereo partly drawn) [Example 233, (S)-quinuclidin-3-yl (6-(3-fluoro-4-methoxyphenyl)-7-methoxy-2,2-dimethyl-1,2,3,4-tetrahydronaphthalen-1-yl)carbamate] | 21.7 | 0.65
13 | COc1ccccc1-c1ccc2c(c1)C(NC(=O)O[C@@H]1CN3CCC1CC3)CCC2 (stereo partly drawn) [Example 75, (S)-quinuclidin-3-yl (7-(2-methoxyphenyl)-1,2,3,4-tetrahydronaphthalen-1-yl)carbamate] | 138 | 22.7
14 | COc1cc(-c2ccc3c(c2)CCC(C)(C)C3NC(=O)O[C@@H]2CN3CCC2CC3)ccc1Cl (stereo partly drawn) [Example 124, (S)-quinuclidin-3-yl (6-(4-chloro-3-methoxyphenyl)-2,2-dimethyl-1,2,3,4-tetrahydronaphthalen-1-yl)carbamate] | 3.35 | 1.6
15 | COCCOc1cccc(-c2ccc3c(c2)CCC2(CC2)C3NC(=O)O[C@@H]2CN3CCC2CC3)c1 (stereo partly drawn) [Example 195, (S)-quinuclidin-3-yl (6′-(3-(2-methoxyethoxy)phenyl)-3′,4′-dihydro-1′H-spiro[cyclopropane-1,2′-naphthalen]-1′-yl)carbamate] | 23.3 | 5.39
16 | COc1cc2c(cc1-c1ccc(CC(C)C)cc1)CCC(C)(C)C2NC(=O)O[C@@H]1CN2CCC1CC2 (stereo partly drawn) [Example 236, (S)-quinuclidin-3-yl (6-(4-isobutylphenyl)-7-methoxy-2,2-dimethyl-1,2,3,4-tetrahydronaphthalen-1-yl)carbamate] | 3.2 | 0.53
17 | COc1ccc(-c2ccc3c(c2)CCC(C)(C)C3NC(=O)O[C@@H]2CN3CCC2CC3)cc1OC (stereo partly drawn) [Example 137, (S)-quinuclidin-3-yl (6-(3,4-dimethoxyphenyl)-2,2-dimethyl-1,2,3,4-tetrahydronaphthalen-1-yl)carbamate] | 8.4 | 2.14
18 | CCCc1ccc(-c2ccc3c(c2)CCCC3NC(=O)O[C@@H]2CN3CCC2CC3)cc1 (stereo partly drawn) [Example 32, (S)-quinuclidin-3-yl (6-(4-propylphenyl)-1,2,3,4-tetrahydronaphthalen-1-yl)carbamate] | 475 | 8.31
19 | O=C(NC1CCCc2cc(-c3ccc(Cl)c(Cl)c3)ccc21)O[C@@H]1CN2CCC1CC2 (stereo partly drawn) [Example 22, (S)-quinuclidin-3-yl (6-(3,4-dichlorophenyl)-1,2,3,4-tetrahydronaphthalen-1-yl)carbamate] | 22.5 | 8.42

Source: US12338237B2, “Derivatives having 1,2,3,4-tetrahydronaphthalene moiety or pharmaceutically acceptable salt thereof and pharmaceutical compositions comprising the same” (YUHAN CORPORATION, priority 2019, dated 2025)
